From patent US6921530B1, “Low dose IL-2 for potentiation of immunity” (Cornell Research Foundation, Inc., priority 1999, dated 2005)
“And” between values parts separate entries of the source, which are not always exact repeats. Equal values may be shown once.

What was measured:
[1] = test system: HIV p24-reactive T cells and NK cells; test: Activation markers after 18 h whole blood activation with HIV p24 (flow cytometry); assay type: cell-based, human
Text: FIG. 4 Expression of activation markers of CD4+ T cells and CD4− T cells after stimulation with HIV p24. Vertical axis=CD4, upper row horizontal axis=CD69, middle row=CD25, lower row=IFN-γ. A=subject #1, B=subject #2, C=subject #3, and D=subject #8. Numbers in right quadrants represent the % of CD4+ (upper) and CD4− (lower) T cells that reacted with the monoclonal antibody directed against the respective activation marker. The numbers in the column on the right represent the mean±SEM of the percentage positive cells from all 4 subjects. The values for control cultures, which received monoclonal antibodies reactive with accessory molecules alone (CD28 & CD49d) without HIV p24, were subtracted from the plots and percentages shown.
To identify activated cells, whole blood (1 ml) was cultured for 18 hours with the co-stimulatory antibodies anti-CD28 and anti-CD49d, and HIV p24 antigen (1 μg/ml, Research Diagnostics, Inc., Flanders N.J.) and cytomegalovirus antigen (1 μg/ml, Advanced Biotechnologies, Columbia, Md.). At the end of the incubaton the erythrocytes were lysed using FACSLysing Solution™ (9 ml). The cells were then either frozen at −70° C. in 2 ml RPMI 1640 medum with 10% Dimethyl Sulfoxide (Sigma, St. Louis, Mo.) or permeabilized with FACSPerm Solution™ (2 ml). Thereafter the cells were reacted with anti-CD3-PerCP, anti-CD4-PE, anti-CD8-PE, anti-CD56-PE, anti-CD69-FITC, anti-CD25-FITC, and anti-IFN-γ-FITC. All antibodies were from Becton Dickinson.
FIG. 5 Expression of interferon γ (IFN-γ) by CD-3+ and CD3− lymphocytes. A. Cells examined for size and granularity (left panel), CD3 expression (middle panel), and CD8 expression (right panel). B. Expression of IFN-γ and CD56 by CD3+ cells (gate R2), according to CD8− cells (gate R4, left panels), CD8 dim (gate R5, middle panels), and CD8+ (gate R6, right panels). Control cultures stimulated only with accessory antibodies (upper panels, HIV p24-stimulated cultures (lower panels). C. Expression of IFN-γ and CD56 by CD3− cells (gate R3), according to CD8− cells (gate R4, left panels), CD8dim (gate 5, middle panels) and CD8+ (gate R6, right panels). Control cultures stimulated only with accessory antibodies (upper panes, antiCD28, CD49d), HIV p-24-stimulated cultures (lower panels). Numbers in upper quadrants represent the percentages of CD56− and CD56+ cells that also reacted with anti-IFN-γ. To examine the activation of T cells and NK cells together, the cells were reacted with anti-CD3-PerCP, anti-CD8-PE, and anti-CD56-FITC, together with anti-IFN-γ-APC, all from Becton Dickinson.
To examine the HIV specific reactivity of CD4+ T cells, we performed an 18-hour activation of whole blood with HIV p24 followed by a 4-hour incubation with Brefeldin A to inhibit secretion. Subsequently, the cells were examined by flow cytometry after reaction with fluorochrome-conjugated monoclonal antibodies. Shown in FIG. 4 are the results from experiments performed with blood from the subjects who underwent a second treatment interruption when they had experienced the second CD8+ T lymphocytosis and had reached a stable concentration of plasma virus. Only CD3+ T cells were examined. […] In addition, subjects #1, 2 and 8 also expressed IFN-γ (mean 2.0%±1.2% SEM), while subject #3 had reactivity just above the limits of detection (0.2%). Also depicted in FIG. 4 are the results of the activation markers expressed by CD4− T cells, which are all CD8+, as determined by direct analysis for CD8 expression. There were also CD4− T cells stimulated to express CD69 (mean 3.2%±2.1% SEM) and CD25 (mean 1.9%±0.9% SEM). Moreover, CD4− T cells from subjects #1 and 2 also expressed IFN-γ, whereas the cells from subject 3 and 8 were at the level of detection (0.1%).
It was unexpected to find CD3+, CD4− cells capable of expressing surface markers of activation, and as well, producing detectable intracellular IFN-γ after HIV p24 stimulation. […]

HBV = settings: cited from earlier work
[2] = 4 subjects after second treatment interruption, mean ± SEM
[3] = subject #1, HIV antigen activated

Substance: Interleukin-2 [IL-2]
- CD4+ T cells stimulated by HIV p24 to express CD25 [1, 2]: 15.5%±2.1% and 15.5%
- CD4+ T cells stimulated by HIV p24 to express CD69 [1, 2]: 4.3%±0.45
- CD4− T cells stimulated by HIV p24 to express CD25 [1, 2]: 1.9%±0.9%
- CD4− T cells stimulated by HIV p24 to express CD69 [1, 2]: 3.2%±2.1%
- CD4− T cells expressing IFN-γ ([1]; subject 3 and 8, at the level of detection): 0.1%
- CD3-, CD8-dim cells that are CD56+ producing IFN-γ [1, 3]: 28%
- CD3−, CD8− cells that express CD56 producing IFN-γ [1, 3]: 33%
- CD4+ T cells stimulated by HIV p24 to express IFN-γ ([1]; subject #3, just above the limits of detection): 0.2%
- CD4+ T cells stimulated by HIV p24 to express IFN-γ ([1]; subjects #1, 2 and 8, mean ± SEM): 2.0%±1.2%
- subjects with 50% reduction in HBV viral titer (HBV; 9×10^6 CU s.c. weekly for three weeks, then 1.8×10^6 CU twice a week for three months): 4/7
- subjects with response (HBV; doses up to 3.6×10^6 CU/day SC qd for eight weeks): 5/30
- subsequent decrease in ALT levels (HBV; following the transient increase): 30%
- transient increase in ALT levels (HBV; in vivo): 30%
